Test system: 855422-203-R-J1-PDC spheroids with HUVEC/MSC, viability
Assay: Anticancer human tumor 855422-203-R-J1-PDC patient-derived bladder carcinoma cell line growth inhibition [PI3K]
Settings: for viability, T/C: stronger effect = lower value; active means viability on the fitted dose curve at most 10% of control; inactive means the rest
How it was run: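 Tumor cells were combined with HUVEC and MSCs into spheroids, then dosed with PI3K-inhibitor combinations over half-log ranges capped near clinical Cmax or 10 microM.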
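Further: agents incubated with spheroids for one week before read-out.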
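Wherever viability, T/C is given: 100% = DMSO vehicle-treated control wells.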

Cn1cnc2c(F)c(Nc3ccc(Br)cc3Cl)c(C(=O)NOCCO)cc21 + COc1c(OCCCN2CCOCC2)ccc2c3n(c(=NC(=O)c4cnc(N)nc4)nc12)CCN3
2440 nM: IC50 (curve of first compound, second compound 0.00316 µM)
283 nM: IC50 (curve of first compound, second compound 0.0316 µM)
active: viability, T/C (second compound 0.1 µM, first compound 3 µM) 2.98% | viability, T/C (second compound 0.316 µM, first compound 0.00949 µM) 8.62% | viability, T/C (second compound 0.316 µM, first compound 0.03 µM) 6.53% | viability, T/C (second compound 0.316 µM, first compound 0.0949 µM) 5.43% | viability, T/C (second compound 0.316 µM, first compound 0.3 µM) 4.82% | viability, T/C (second compound 0.316 µM, first compound 0.949 µM) 2.2% | viability, T/C (second compound 0.316 µM, first compound 3 µM) 0.34% | viability, T/C (second compound 1 µM, first compound 0.00949 µM) 3.01% | viability, T/C (second compound 1 µM, first compound 0.03 µM) 3.36% | viability, T/C (second compound 1 µM, first compound 0.0949 µM) 1.65% | viability, T/C (second compound 1 µM, first compound 0.3 µM) 2.9% | viability, T/C (second compound 1 µM, first compound 0.949 µM) 0.38% | viability, T/C (second compound 1 µM, first compound 3 µM) 0.99%
< 9.49 nM: IC50 (curve of first compound, second compound 0.1 µM) | IC50 (curve of first compound, second compound 0.316 µM) | IC50 (curve of first compound, second compound 1 µM)
1570 nM: IC50 (curve of first compound, second compound 0.01 µM)
inactive: viability, T/C (second compound 0.00316 µM, first compound 0.00949 µM) 94.1% | viability, T/C (second compound 0.00316 µM, first compound 0.03 µM) 88.1% | viability, T/C (second compound 0.00316 µM, first compound 0.0949 µM) 91.4% | viability, T/C (second compound 0.00316 µM, first compound 0.3 µM) 93.5% | viability, T/C (second compound 0.00316 µM, first compound 0.949 µM) 90.1% | viability, T/C (second compound 0.00316 µM, first compound 3 µM) 41.2% | viability, T/C (second compound 0.01 µM, first compound 0.00949 µM) 73.6% | viability, T/C (second compound 0.01 µM, first compound 0.03 µM) 90.6% | viability, T/C (second compound 0.01 µM, first compound 0.0949 µM) 82% | viability, T/C (second compound 0.01 µM, first compound 0.3 µM) 85.9% | viability, T/C (second compound 0.01 µM, first compound 0.949 µM) 66.2% | viability, T/C (second compound 0.01 µM, first compound 3 µM) 29.1% | viability, T/C (second compound 0.0316 µM, first compound 0.00949 µM) 64% | viability, T/C (second compound 0.0316 µM, first compound 0.03 µM) 64% | viability, T/C (second compound 0.0316 µM, first compound 0.0949 µM) 60.8% | viability, T/C (second compound 0.0316 µM, first compound 0.3 µM) 47.1% | viability, T/C (second compound 0.0316 µM, first compound 0.949 µM) 34.6% | viability, T/C (second compound 0.0316 µM, first compound 3 µM) 12.7% | viability, T/C (second compound 0.1 µM, first compound 0.00949 µM) 30.8% | viability, T/C (second compound 0.1 µM, first compound 0.03 µM) 26.1% | viability, T/C (second compound 0.1 µM, first compound 0.0949 µM) 22.2% | viability, T/C (second compound 0.1 µM, first compound 0.3 µM) 21.8% | viability, T/C (second compound 0.1 µM, first compound 0.949 µM) 10.2%

CC(C)n1nc(-c2ccc3oc(N)nc3c2)c2c(N)ncnc21
inactive: viability, T/C (compound 0.000316 µM) 113% [middle of 4 runs] | viability, T/C (compound 0.001 µM) 93.4% [middle of 4 runs] | viability, T/C (compound 0.00316 µM) 113% [middle of 4 runs] | viability, T/C (compound 0.01 µM) 91.1% [middle of 4 runs] | viability, T/C (compound 0.0316 µM) 80.6% [middle of 4 runs] | viability, T/C (compound 0.1 µM) 17.8% [middle of 4 runs]
55.3 nM [middle of 4 runs]: IC50 (curve of compound)

Source: PubChem BioAssay AID1963967 (Molecular Pharmacology Branch, DTP, NCI, 2024)
